Measured values taken from patent US7122193B1 (priority 1994, dated 2006).

Key:
[1] = biological target: I-E^d class II molecules (Mus musculus, UniProt P01904+P01915); type: cell-based
[2] = biological target: I-A^d class II molecules (Mus musculus, UniProt P01921+P04228); type: cell-based
Chain of I-A^d class II molecules (P04228 24-256 limits assumed): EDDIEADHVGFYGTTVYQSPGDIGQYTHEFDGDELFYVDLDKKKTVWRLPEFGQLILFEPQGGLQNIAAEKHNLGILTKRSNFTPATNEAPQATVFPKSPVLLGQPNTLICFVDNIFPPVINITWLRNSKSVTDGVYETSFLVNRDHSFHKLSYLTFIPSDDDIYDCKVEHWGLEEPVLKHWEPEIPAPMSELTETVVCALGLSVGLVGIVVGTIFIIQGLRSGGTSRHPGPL
Chain of I-A^d class II molecules (P01921 28-265 limits assumed): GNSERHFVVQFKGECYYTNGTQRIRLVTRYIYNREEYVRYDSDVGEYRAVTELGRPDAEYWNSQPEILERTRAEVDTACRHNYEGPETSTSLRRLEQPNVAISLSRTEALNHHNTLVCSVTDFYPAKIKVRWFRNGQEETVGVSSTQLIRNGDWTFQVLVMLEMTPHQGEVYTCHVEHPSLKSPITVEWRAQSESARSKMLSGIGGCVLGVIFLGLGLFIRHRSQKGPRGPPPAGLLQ

Chain of I-E^d class II molecules (P01904 26-255 limits assumed): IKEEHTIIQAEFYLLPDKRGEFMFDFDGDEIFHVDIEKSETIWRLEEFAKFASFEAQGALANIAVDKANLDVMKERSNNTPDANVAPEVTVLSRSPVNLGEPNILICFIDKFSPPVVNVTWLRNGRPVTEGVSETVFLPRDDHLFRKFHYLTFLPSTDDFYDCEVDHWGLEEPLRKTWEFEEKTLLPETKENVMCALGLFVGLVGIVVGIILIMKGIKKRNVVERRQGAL
Chain of I-E^d class II molecules (P01915 27-264 limits assumed): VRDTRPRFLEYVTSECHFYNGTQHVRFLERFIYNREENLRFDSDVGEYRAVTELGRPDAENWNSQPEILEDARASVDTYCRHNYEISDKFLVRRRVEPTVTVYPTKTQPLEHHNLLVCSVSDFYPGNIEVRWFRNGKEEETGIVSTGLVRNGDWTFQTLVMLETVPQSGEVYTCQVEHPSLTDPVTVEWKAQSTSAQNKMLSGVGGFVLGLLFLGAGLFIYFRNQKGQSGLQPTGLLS

CH3CO-(D)Thr-(D)Asp-(D)Lys-(D)Tyr-(D)Thr-(D)Ile-(D)Lys-(D)Trp-(D)Val-(D)Ala-(D)Phe-(D)Leu-(D)Lys-NH2
inhibition (of IL-2 production / binding of cI 12–26) [1]: up to 56% | binding to I-A^d transfected fibroblasts, in words [2]: Neither the L- nor the retro-inverso peptides bound
